From patent US20240415808A1, “Dosage Regimen for Fexuprazan Injection Composition” (Daewoong Pharmaceutical Co., Ltd., priority 2021, published 2024)
Where “and” joins values, the source holds several entries; their conditions need not be identical. Equal values may be shown once.

Assays:
[1] = 4-week repeated intravenous toxicity test, rat; format: in vivo
Procedure: The previously prepared fexuprazan hydrochloride was dissolved in a solution containing 30 wt. % of polyethylene glycol (Polyethylene Glycol 400) polymer in physiological saline, and the concentration was calculated based on fexuprazan weight so that it could be administered at a liquid volume of 5 mL/kg for rats and 2 mL/kg for beagle dogs to prepare each composition. Toxicity was evaluated by intravenously administering at doses of 0, 2.5, 5, and 10 mg/kg/day to rats and beagle dogs, respectively, once a day for 4 weeks.

[2] = oral vs intravenous two-way crossover clinical trial, safety; format: in vivo, human; conditions: healthy adults, single 40 mg oral and 40 mg intravenous
Excerpt: Therefore, in order to compare the safety/PK/PD of the compound of the present invention during single intravenous administration and during single oral administration and derive the bioavailability, the clinical trial was designed as a randomized, open-label, single-dose, two-period, two-way crossover trial in healthy adults. The selection/exclusion criteria were the same as in Experimental Example 4. A total of 8 subjects were enrolled, and four subjects each were randomly assigned to sequence group 1 or sequence group 2 in the order in which they passed the screening criteria. All test subjects completed safety, pharmacokinetic, and pharmacodynamic evaluations according to the planned clinical trial schedule.
Testing of the acidity (pH) in the gastrointestinal tract and gastric secretion promoting hormone gastrin were performed from 24 hours before medication to 24 hours after medication. Blood collection for pharmacokinetics and urine collection for pharmacokinetics were performed for 48 hours from the time of medication.

[3] = tested on: acidity (pH) in the gastrointestinal tract; assay: multiple intravenous administration clinical trial (7 days), acidity (pH) in the gastrointestinal tract; format: in vivo, human; conditions: healthy adults; for Fraction time pH ≥ 4 over 24 hours post-dose (duration %) / Mean pH / Median pH: 7th day
Procedure: Subsequent to Experimental Example 4, in order to confirm the change in PD value during multiple administration of the compound of the present invention, the clinical trial was designed to be randomized, double-blind, placebo-controlled in healthy adults between the ages of 19 and 50.
A stabilizer (200 mg), a freeze-drying auxiliary agent (200 mg), and the previously prepared fexuprazan hydrochloride (40 mg based on fexuprazan weight) were dissolved in water for injection (4 mL), and the pH was adjusted to 4.0 by adding an appropriate amount of acid. The prepared solution was put into a vial and dried using a freeze-drying method to prepare a freeze-dried agent.
The freeze-dried composition prepared as above was used, but a total of 28 subject of […], 8, and 8 subjects each were enrolled for three dose groups (20 mg, 40 mg, and 80 mg) based on fexuprazan weight, and each group was randomly assigned to test or control groups in the order that they passed the screening criteria at a ratio of 3:1.
Dose groups 1 and 3 in Table 12 were administered once a day (every 24 hours) (FIG. 8), and dose group 2 was administered twice a day (every 12 hours) for 7 days (FIG. 9).
The acidity (pH) tests in the gastrointestinal tract were performed for 48 hours from the day before administration to 24 hours after the first administration. On the 7th day, it was administered for 24 hours after administration. The measured results are shown in Table 13 and FIGS. 10 to 14 below.

[4] = pharmacokinetic experiment in male rats (oral and tail vein); format: in vivo, rat
Procedure: Methylcellulose was dissolved in physiological saline to prepare a solution containing methylcellulose at a concentration of 0.5 wt %, and then the previously prepared fexuprazan hydrochloride was added thereto to prepare a composition with Fexuprazan at a concentration of 1 mg/mL. The composition prepared above was orally administered to male rats at a dose of 2 mg/kg in a liquid volume of 2 mL/kg depending on the body weight of the individual, and then blood was collected using an orbital blood collection method at 0.25, 0.5, 1, 2, 4, 6, 8, and 24 hours, and centrifuged at 10,000 rpm for 5 minutes. Plasma was collected, analyzed by HPLC-MS/MS, and pharmacokinetic parameters were calculated.
Then, methylcellulose was dissolved in physiological saline to prepare a solution containing methylcellulose at a concentration of 0.5 wt,%, and then the previously prepared fexuprazan hydrochloride was added thereto to prepare a composition with fexuprazan at a concentration of 1 mg/mL. The composition was administered through the tail vein in male rats at a dose of 1 mg/kg in a liquid volume of 1 mL/kg depending on the body weight of the individual. Blood was collected by the same method as in oral administration at 0.083, 0.25, 0.5, 1, 2, 4, 6, 8, and 24 hours, and then analyzed.

## CNCc1cn(S(=O)(=O)c2cccc(F)c2)c(-c2ccc(F)cc2F)c1OC [Fexuprazan, 1-(5-(2,4-difluorophenyl)-1-((3-fluorophenyl)sulfonyl)-4-methoxy-1H-pyrrol-3-yl)-N-methylmethanamine]
[1]; Rat, 4 weeks, intravenous, doses 0, 2.5, 5, 10
  Result: harmless dose: harmless dose 10 mg/kg
[1]; rats, 2.5, 5, 10 mg/kg/day intravenous, 4 weeks
  toxic symptoms due to the test substance: no toxic symptoms due to the test substance were observed in all administration groups
[1]; rats, intravenous once a day for 4 weeks
  harmless dose: 10 mg/kg/day
[2]
  serious abnormalities or side effects: no serious abnormalities or side effects were observed
[3]; 20 mg IV q24h
  Fraction time pH ≥ 4 over 24 hours post-dose (duration %): 55.68 (±14.85) % and 55.68 ± 14.85%
  Mean pH: 4.28 ± 0.7
  Median pH: 4.29 ± 1.32
[3]; 20 mg IV q24h, 7th day (n = 6)
  Fraction time pH ≥ 6 over 24 hours post-dose (duration %): 25.29 ± 15.41%
[3]; 40 mg IV q12h
  Fraction time pH ≥ 4 over 24 hours post-dose (duration %): 99.85 ± 0.31%
  Mean pH: 6.34 ± 0.23
  Median pH: 6.33 ± 0.22
[3]; 40 mg IV q12h, 7th day (n = 5)
  Fraction time pH ≥ 6 over 24 hours post-dose (duration %): 74.77 (±13.39) % and 74.77 ± 13.39%
[3]; 80 mg IV q24h
  Fraction time pH ≥ 4 over 24 hours post-dose (duration %): 94.78 ± 8.49%
  Mean pH: 6.08 ± 0.5
  Median pH: 6.28 ± 0.27
[3]; 80 mg IV q24h, 7th day (n = 6)
  Fraction time pH ≥ 6 over 24 hours post-dose (duration %): 70.07% and 70.07 ± 18.09%
[4]; PO 2 mg/kg vs IV 1 mg/kg
  BA: 24.7%
[4]; rat, plasma, IV 1 mg/kg
  AUC(0-t): 0.143 ± 0.038 µg·h/mL
  Vd: 20.2 ± 5.2 L/kg
  clearance: 6.84 ± 1.74 L/h/kg
  half-life: 2.06 ± 0.25 h
[4]; rat, plasma, PO 2 mg/kg
  AUC(0-t): 0.0709 ± 0.0224 µg·h/mL
  Cmax: 0.0238 ± 0.0107 µg/mL
  Tmax: 0.833 ± 0.289 h
  half-life: 1.74 ± 0.16 h
